# In patent US20250009779A1 (priority 2021, published 2025):
# Entries after “also recorded” stand apart in the source; their conditions may differ.
# Experiments:
# pDCs [1] = type: cell-based, human
# pDCs [2] = type: cell-based, human; remark: listed apart in the source
# pDCs [3] = type: cell-based, human; remark: listed apart in the source
# pDCs [4] = tested on: pDCs
# pDCs [5] = type: cell-based, human; remark: listed apart in the source
# macrophages [6] = type: cell-based, human
# macrophages [7] = experiment: FAIRE assay on promoter regions of IL6, TNF and IL12p40 in macrophages; type: cell-based, human; settings: cells primed with IFN-α 24 hours, then LPS 3 hours, FIG. 4G
# macrophages [8] = experiment: Immunoblot of NF-κB and MAPKs signaling in macrophages; type: cell-based, human; settings: whole cell lysates, FIG. 20B
compound,measurement,setting,value
"O=C(O)CCCCC(CCSCc1ccccc1)SCc1ccccc1 (centres unmarked) [CPI-613, 6,8-bis-benzylthio-octanoic acid]",XBP1 splicing,pDCs [1],no effect
same,"expression of ISGs such as GBP1, IRF7, ISG54, MxB, CXCL10",pDCs [1],inhibited
same,expression of PHGDH,pDCs [1],no effect
same,expression of IFN-α (IFNA),pDCs [1]; 5 h,inhibited
same,secretion of IFN-α,pDCs [2],inhibited
same,intracellular ATP levels in TLR9-activated pDCs,pDCs [3],reduced
same,cell viability,pDCs [4],no effect
Cc1ccc(OCCN(C)C(=O)Cn2cc(NC(=O)CCOc3ccccc3)cn2)cc1 [IXA4],PHGDH gene expression,pDCs [1],induced
N[C@@H](CO)C(=O)O [L-serine],IFN-α secretion by TLR9-activated pDCs,pDCs [2],unaltered
Cc1cc(C)nc(NC(=S)N2CCN(Cc3ccc(C(F)(F)F)cc3)CC2)c1 [NCT-503],IFNA expression by TLR9-activated pDCs facing ER stress,pDCs [1],restored
same,intracellular pyruvate levels in ER stressed-pDCs,pDCs [5],restored
same,intracellular ATP levels under ER stress,pDCs [3],restored
"CC(=O)C(=O)[O-].[Na+] [pyruvate, sodium pyruvate]",IFNA expression by pDCs under ER stress condition,pDCs [1],restore
same,intracellular ATP levels under ER stress,pDCs [3],restored
C/C=C(/C)C(=O)O[C@H]1C(C)=C2[C@H]([C@@H]1OC(=O)CCCCCCC)[C@@](C)(OC(C)=O)C[C@H](OC(=O)CCC)[C@@]1(O)[C@H]2OC(=O)[C@@]1(C)O [thapsigargin],gene encoding phosphoglycerate dehydrogenase (PHGDH) expression,pDCs [1],markedly induced
same,induction of serine amino acid biosynthesis genes,pDCs [1],induction
"O.O=C([O-])CCC(=O)C(=O)[O-].[Na+].[Na+] [α-KG, α-ketoglutaric acid disodium salt hydrate]",intracellular ATP levels under ER stress,pDCs [3],restored
IFN-α,"LPS-induced response in macrophages: TNF, IL6, IL1B, IL12B and IFNB",macrophages [6],superinduction; also recorded: increases
same,TLR4 expression or of the 2 subunits of the IFNAR in the macrophages,macrophages [6],little change
same,chemokine receptors expression on macrophages,macrophages [6],significant impact
same,"inflammatory genes (IL-1β, IL-12p40, IFN-β and CXCL10) expression",macrophages [6],dose-dependent manner
same,chromatin accessibility of IL6 and TNF promoters,macrophages [7],significantly increased; also recorded: increase
same,TLR4-induced IKBα degradation or activation of MAPKs ERK and p38,macrophages [8],minimal effects; also recorded: does not increase
